In ChEMBL document CHEMBL3132775, “Design, synthesis and biochemical investigation, by in vitro luciferase reporter system, of peptide nucleic acids as new inhibitors of miR-509-3p involved in the regulation of cystic fibrosis disease-gene expression” (Medchemcomm, 2014) one finds Activity, inhibition and Tm(app) data, which are given here for three compounds.

The subject of experiment [1] is A549. Kind of experiment: Inhibition of miR-509-3p (unknown origin) transfected in human A549 cells assessed as luciferase activity at 50 uM by dual luciferase reporter gene assay. Type of experiment: cell-based. Further details: scale not given: the % may be the effect or the level left. Background: Reporter assays use an easily measured gene product as a stand-in for the process of interest.

The subject of experiment [2] is A549. Kind of experiment: Inhibition of miR-509-3p (unknown origin) transfected in human A549 cells at 100 uM after 12 hrs by fluorescence microscopy. It counts as cell-based.
A short description of experiment [3]: Binding affinity to miR-509-3p (unknown origin) assessed as heteroduplex formation by CD spectra analysis.
A short description of experiment [4]: Binding affinity to miR-509-3p (unknown origin) assessed as heteroduplex formation at 1:15 and 1:5 ratio after 2 hrs by EMSA. (In general: A gel shift assay detects complexes by their altered migration in electrophoresis.)
The test system of experiment [5] is A549. Kind of experiment: Inhibition of miR-509-3p (unknown origin) transfected in human A549 cells at 10 to 50 uM by dual luciferase reporter gene assay. Type of experiment: cell-based.
Experiment [6] is described as follows: Binding affinity to miR-509-3p (unknown origin) assessed as apparent melting temperature by UV-spectrophotometeric analysis.
In experiment [7] the test system is A549. Kind of experiment: Inhibition of miR-509-3p (unknown origin) transfected in human A549 cells by dual luciferase reporter gene assay. It counts as cell-based.

Calls of active or inactive are those of the source. The calls are words filed in the database; no cut-off is given here. A value given as a limit tells only on which side of the number the result lay.

Consider `Cc1cn(CC(=O)N(CCNC(=O)CN(CCNC(=O)CN(CCNC(=O)CN(CCNC(=O)CN(CCNC(=O)CN(CCNC(=O)CN(CCNC(=O)COCCOCCNC(=S)Nc2ccc(C3c4ccc(O)cc4OC4=CC(=O)C=CC43)c(C(=O)O)c2)C(=O)Cn2ccc(N)nc2=O)C(=O)Cn2cnc3c(N)ncnc32)C(=O)Cn2ccc(N)nc2=O)C(=O)Cn2cnc3c(=O)[nH]c(N)nc32)C(=O)Cn2cnc3c(=O)[nH]c(N)nc32)C(=O)Cn2cnc3c(N)ncnc32)CC(=O)NCCN(CC(=O)NCCN(CC(=O)NCCN(CC(=O)NCCN(CC(=O)NCCN(CC(=O)NCCN(CC(=O)NCCN(CC(=O)NCC(=O)NC(COP(=O)(O)O)C(=O)NC(COP(=O)(O)O)C(=O)NCC(N)=O)C(=O)Cn2cc(C)c(=O)[nH]c2=O)C(=O)Cn2cnc3c(=O)[nH]c(N)nc32)C(=O)Cn2ccc(N)nc2=O)C(=O)Cn2ccc(N)nc2=O)C(=O)Cn2cnc3c(=O)[nH]c(N)nc32)C(=O)Cn2cnc3c(N)ncnc32)C(=O)Cn2cnc3c(=O)[nH]c(N)nc32)c(=O)[nH]c1=O` (stereo unspecified), for which the Activity in the experiment with A549 [1] was under 40%.
Regarding `Cc1cn(CC(=O)N(CCNC(=O)CN(CCNC(=O)CN(CCNC(=O)CN(CCNC(=O)CN(CCNC(=O)CN(CCNC(=O)CN(CCNC(=O)CN(CCNC(=O)CN(CCNC(=O)CN(CCNC(=O)CN(CCNC(=O)CN(CCNC(=O)COCCOCCNC(=S)Nc2ccc(C3c4ccc(O)cc4Oc4cc(O)ccc43)c(C(=O)O)c2)C(=O)Cn2cnc3c(N)ncnc32)C(=O)Cn2cnc3c(=O)[nH]c(N)nc32)C(=O)Cn2cnc3c(N)ncnc32)C(=O)Cn2ccc(N)nc2=O)C(=O)Cn2cnc3c(=O)[nH]c(N)nc32)C(=O)Cn2cc(C)c(=O)[nH]c2=O)C(=O)Cn2cnc3c(N)ncnc32)C(=O)Cn2ccc(N)nc2=O)C(=O)Cn2ccc(N)nc2=O)C(=O)Cn2cnc3c(N)ncnc32)C(=O)Cn2cnc3c(N)ncnc32)CC(=O)NCCN(CC(=O)NCCN(CC(=O)N[C@@H](CCCCN)C(=O)N[C@@H](CCCCN)C(N)=O)C(=O)Cn2cnc3c(N)ncnc32)C(=O)Cn2ccc(N)nc2=O)c(=O)[nH]c1=O`, the inhibition result in the experiment on A549 [2] is “inactive”. The result in experiment [3] and in experiment [4] was Active. Besides, the inhibition result in the experiment with A549 [5] is “Active”. For the same compound, in experiment [6], the Tm(app) stood at 80 °C.
Take `Cc1cn(CC(=O)N(CCNC(=O)CN(CCNC(=O)CN(CCNC(=O)CN(CCNC(=O)CN(CCNC(=O)CN(CCNC(=O)CN(CCNC(=O)CN(CCNC(=O)CN(CCNC(=O)CN(CCNC(=O)CN(CCNC(=O)CN(CCNC(=O)COCCOCCNC(=S)Nc2ccc(C3c4ccc(O)cc4OC4=CC(=O)C=CC43)c(C(=O)O)c2)C(=O)Cn2cnc3c(N)ncnc32)C(=O)Cn2cnc3c(=O)[nH]c(N)nc32)C(=O)Cn2cnc3c(N)ncnc32)C(=O)Cn2ccc(N)nc2=O)C(=O)Cn2cnc3c(=O)[nH]c(N)nc32)C(=O)Cn2cc(C)c(=O)[nH]c2=O)C(=O)Cn2cnc3c(N)ncnc32)C(=O)Cn2ccc(N)nc2=O)C(=O)Cn2ccc(N)nc2=O)C(=O)Cn2cnc3c(N)ncnc32)C(=O)Cn2cnc3c(N)ncnc32)CC(=O)NCCN(CC(=O)NCCN(CC(=O)NCC(=O)NC(COP(=O)(O)O)C(=O)NC(COP(=O)(O)O)C(=O)NCC(N)=O)C(=O)Cn2cnc3c(N)ncnc32)C(=O)Cn2ccc(N)nc2=O)c(=O)[nH]c1=O` (stereo unspecified): in the experiment on A549 [7], the inhibition result is “Dose-dependent effect”. The inhibition result with A549 [2] was “inactive”. In addition, the result in experiment [3] and in experiment [4] was Active. In addition, in experiment [6], the Tm(app) stood at 74 °C.
